Test results published in patent US5852003A, “Drug and pharmaceutical composition for the treatment of muscles” (Societe Valbiofrance, priority 1994, dated 1998).
Entries after “also recorded” stand apart in the source; their conditions may differ.

Legend:
beta TGF = target: T1, beta TGF (Homo sapiens, UniProt P01137); experiment: protection of beta TGF against degradation by trypsin, beta TGF activity read on CCL64 cells; format: cell-based; details: for % inhibiting activity of the incorporation of tritiated thymidine in CCL64 cells: 37° C. 10 min, dilution 50 times
T1 construct: from tissue; host or cells: human blood platelets
T1 sequence (P01137 279-390 limits assumed): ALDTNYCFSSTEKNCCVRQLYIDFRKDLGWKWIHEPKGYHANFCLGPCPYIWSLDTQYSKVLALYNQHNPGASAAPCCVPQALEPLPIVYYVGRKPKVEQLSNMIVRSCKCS
Description: In order to measure the capacity of certain CMDBSs to interact with members of the beta TGF family and, by means of this interaction, to protect the beta TGFs, a grading test was devised.
The beta 1 TFG is prepared from human blood platelets according to a protocol described in numerous publications (for example Growth factors and their receptors, 1992, vol 1 pp 419-472, written by A. Roberts and M. Sporn, edited by A. Roberts and M. Sporn, and published by Springer Verlag Berlin) and are commonly used by persons of ordinary skill in the art. The beta TGF biological activity test used in this example is that of the inhibition of CCL64 cells (from the American Tissue Culture Collection). This inhibition is measured by the ability of the beta TGF to inhibit the incorporation of tritiated thymidine in a dose dependent manner in these CCL64 cells stimulated by the FGF or by fetal calf serum according to the protocol described by Van Zolen in Progress in Growth Factor Research, 1990, 2, pp 131 to 152.
Two doses of beta TGF are used, one corresponding to the 50% inhibition capacity of the incorporation of tritiated thymidine (defined as the inhibiting activity unit) and the other corresponding to the 100% inhibition capacity.
The final volume of the incubated solution is adjusted to 1 ml and incubation is carried out at 37° C. for a varying length of time (10 minutes in the example described (Table 1)).
20 μl samples of are taken from each of the incubation reactions and added to CCL64 cells cultivated in 24-well plates, each well containing milliliter of culture medium according to the aforementioned protocol described by E. Zohlen. In these conditions, the final concentration of beta TGF per well is 1 ng/ml.
The incubation mixture contained 50 ng of beta TGF (in 0.1% bovine serum albumin) and trypsin (500 μg). Mesoglycan or sulodexide or dextran sulfate or dextran or sucrase are used at the dose of 5000 μg.
The beta TGF biological activity is measured as described above after a dilution of 50 times and by using CCL64 cells.

FGF 2 = experiment: potentialization of FGF 2 biological activity, tritiated thymidine incorporation in CCL39 cells; format: cell-based
Source text: (§1) The cells used in this example are CCL39 cells from the American Tissue Culture Collection. The conditions concerning culture and the measurement test of FGF biological activity are the same as those described in the publication by Tardieu and coll. in the Journal of Cellular Physiology, 1992. The FGF growth factors used are the FGF 1 and FGF 2 recombinant forms.
(§2) In these experiments, the FGF 1 or 2 is used at a dose corresponding to the effective dose (called ED50) in order to induce a stimulation of the biological activity of 50% of the dose inducing the maximum stimulation. The biological activity is measured by the ability to induce an increase of the incorporation of tritiated thymidine in the cells according to protocols extensively described in numerous publications such as the previously mentioned publication by Tardieu et coll. and also in French Patent 2 644 066. […] In addition to this ability to potentialize the biological activity of the FGFs, the HBGFPPs protect the FGFs against thermal degradations and the inactivation induced by the proteolytic action of trypsin (FIGS. 3 to 5). Similarly, these HBGFPPs protect FGF1 and 2 against an inactivation induced by the proteolytic activity of trypsin (5A and 5B).

FGF = experiment: semi-quantitative evaluation of FGF protection against trypsin, densitometry of radio-labelled FGF; format: biochemical; details: FGF + trypsin + polymer; radio-labelled FGF found compared to quantity deposited
Description: As described above, a constant quantity of radioactive FGF is incubated under various conditions. After autoradiography of the reaction products, the non degraded quantity of radioactive FGF is quantified by densitometry. The values correspond to the percentage of radio-labelled FGF found, compared to the quantity deposited at the start of reaction (Table 5).

leukocytic elastase [1] = details: cited from earlier work
FGF2 = experiment: protection of FGF2 against thermal degradation, activity on CCL39 cells; format: cell-based; details: 20 μg heparin, 10 μg mesoglycan or sulodexide; 20° C. and 37° C. for 1, 7, 15, 30 days
Description: (§3) (a) and 37° C. (b) for 1, 7, 15, 30 days. The measurement of the biological activity presented in abscissa corresponds to the stimulation unit values (ED50) of the incorporation of tritiated thymidine in CCL39 cells.
as §2

FGF1 = experiment: protection of FGF1 against thermal degradation, activity on CCL39 cells; format: cell-based; details: 20 μg heparin, 10 μg mesoglycan or sulodexide; 20° C. and 37° C. for 1, 7, 15, 30 days
Description: as §3, §2

125I-FGF1 = experiment: protection of 125I-FGF1 against proteolytic degradation by trypsin, gel autoradiography; format: biochemical; details: 37° C., FIG. 5A
Description: (§4) Proteolytic digestion was carried out at 37° C. and the samples were separated by 18% polyacrylamide gel electrophoresis. The gels are dried and autoradiographed. The first track contains the ^125 I-FGF1 on its own.

leukocytic elastase [2] = experiment: inhibition of leukocytic elastase activity; format: biochemical; details: 37° C., pH 8, elastase 8.3 nM, 0.10 mM MeO-Suc-Ala-Ala-Pro-Val-pNA
Description: The purified leukocytic elastase was obtained by Elastin Products Co (Owenville, Mo., U.S.A.) and the plasmin from SIGMA.
The enzymes under consideration are placed in solution in a 100 mM Tris-HCL buffer, pH 8 for the elastase and pH 7.4 for the plasmin, in the presence of 0.02% sodium azide and 0.01% Triton X100 for the plasmin. The substrate and enzyme concentrations are: 0.10 mM MeO-Suc-Ala-Ala-Pro-Val-pNA (paranitroanilide)for the elastase at 8.3 nM, and 0.20 mM dVal-Leu-dLys-pNA for the plasmin at 77 nM. The IC50 is determined for each of the conditions.
Batch EM5 corresponds to a T10 dextran of […]. The intermediate products of synthesis are identified by the symbols given above with an index number specifying the number of each substitution reaction.

EDL muscles [3] = experiment: regeneration of skeletal muscle after deinnervation followed by crushing; format: in vivo, Wistar rats; details: for Ratio regenerated/ contralateral intact (muscle weight): 10 μg injected after deinnervation and crushing; for % ratio treated/ ratio degenerated: 10 μg injected, PBS-treated muscle = 100
Description: The protocol is exactly the same as that described in Example 4 but the crushing of the muscle is preceded by section of the motor nerve at the entrance of the muscle.
The substances are in saline phosphate buffer solution (PBS).
Injection takes place after deinnervation and crushing , using a 50 μl microsyringe equipped with a flexible needle 60 mm in length and 0.4 mm in diameter. Two injections are carried out at an interval of 2 min. The volume injected is therefore 100 μl. The sucrase […] was supplied free of charge by D. Bar Shalom Bulk Medic, Denmark.
After sacrifice of the animal, the EDL muscles of the treated paw and the contralateral paw are weighed. Since individual variations in the weight of normal muscles in animals of the same age can reach 20%, the results were standardized by calculating the ratio of the treated muscle to its contralateral intact control.
This ratio was considered to be 100% for the muscles treated by PBS alone. The degree of regeneration of muscles treated by the different substances was calculated in % of the muscle injected by PBS.

coagulation = experiment: anticoagulant activity
125I-FGF2 = experiment: protection of 125I-FGF2 against proteolytic degradation by trypsin, gel autoradiography; format: biochemical; details: 37° C., FIG. 5B
Description: as §4
The arrangement of the tracks is identical to that presented for the ^125 I-FGF1 in FIG. 5A.

FGF 1 = experiment: potentialization of FGF 1 biological activity, tritiated thymidine incorporation in CCL39 cells; format: cell-based
Source text: as §1, §2

EDL muscles [4] = tested on: EDL muscles
Description: The experiment was conducted on seven Wistar rats aged two and a half months and weighing three hundred grams.
After annesthesia by ether, the EDL muscles (muscles of hind rat paws) were removed from the forefoot and mechanically damaged by applying a constant pressure on the entire length of the muscle, using a Pean forceps. The pressure was maintained for fifteen seconds, the forceps being closed at the second notch. The homogeneity of the lesion on the whole of the muscle was controlled by following its infarction for 30 seconds. The muscle was then put back in position and the skin sutured by linen thread.
The regeneration controls were injected with the same quantity of PBS alone. Depending on the experiments, injection took place before or after the lesion of the muscle. The 200 μl were injected in one minute and the product's diffusion was ensured by leaving the muscle for two minutes before putting it back in the forefoot.
The treated muscles and the controls were collected after 8 days of regeneration and then immediately frozen at -150° C. in isopentane. Frozen transverse sections of 10 μm thickness were made in the median region of the muscle. The dried sections were colored by Gomori trichrome.
The morphometric analysis of the number of fibers and of their diameter was performed on micrographic montages corresponding to a transverse half-section of muscle.

trypsin = trypsin enzymatic activity on substrate S.87
Description: The enzymatic activity of trypsin was measured by spectrophotometric absorption of the transformation product of S 87 in versus of the incubation time.

complement system = experiment: anticomplement activity (CH50); details: measured according to Mauzac et al.
[5] = beta TGF 50 ng + polymer 5000 μg + trypsin 500 μg
[6] = beta TGF 50 ng + polymer 5000 μg, no trypsin
[7] = 10 μg/ml mesoglycan or 20 μg/ml heparin, CCL39 cells
[8] = single injection of 200 μl of 50 μ/ml, after 8 days of regeneration

## dextran
Beta TGF; [5]
  Protection of the beta TGF (beta TGF biological activity): 0%
Beta TGF; [6]
  Protection of the beta TGF (beta TGF biological activity): 100%

## FGF 2: FGF 2 recombinant form growth factor
FGF 2; FGF 2 alone, CCL39 cells
  ED50 of FGF 2: 3 ng/mL

## heparin
FGF
  PROTECTION (in %) of the FGF: 100%
FGF 2; [7]
  ED50 of FGF 2 in the presence of the polymer: 0.2 ng/mL
FGF 2; 20 μg of heparin, 10 μg of mesoglycan or 10 μg of sulodexide, FIG. 2B
  potentialization of the biological activity of FGF2 (in words): potentialization of the biological activity
Leukocytic elastase [1]
  Ki: ~1 nM
FGF2
  protective effect against thermal degradation of FGF2 (in words): protective effect
FGF1
  protective effect against thermal degradation of FGF1 (in words): protective effect
125I-FGF1
  protective effect against proteolytic degradation of 125I-FGF1 (in words): protective effect
Leukocytic elastase [2]
  Leukocytic elastase IC50: 1800 ng/mL
EDL muscles [3]
  Ratio regenerated/ contralateral intact (muscle weight): 0.590
  % ratio treated/ ratio degenerated: 86%
EDL muscles [3]; rat, in vivo
  muscular repair and regeneration (in words): neither heparin nor dextran sulfate present properties on muscular regeneration
coagulation
  anticoagulant activity: 175 IU/mg
125I-FGF2
  protective effect against proteolytic degradation of 125I-FGF2 (in words): protective effect
FGF 1; [7]
  ED50 of FGF 1 in the presence of the polymer: 0.4 ng/mL
FGF 1; 20 μg of heparin, 10 μg of mesoglycan or 10 μg of sulodexide, FIG. 2A
  potentialization of the biological activity of FGF1 (in words): potentialization of the biological activity
Beta TGF
  protection of the beta TGF against proteolysis induced by trypsin (in words): neither sucrase, nor heparin nor dextran sulfate protect the beta TGF
Beta TGF; after 10 min of incubation at 37° C. with trypsin
  biological activity of the beta TGF still present: less than 20%
Beta TGF; [5]
  % inhibiting activity of the incorporation of tritiated thymidine in CCL64 cells: 10%
Beta TGF; [6]
  % inhibiting activity of the incorporation of tritiated thymidine in CCL64 cells: 100%
Beta TGF; polymer 5000 μg alone, no beta TGF, no trypsin
  % inhibiting activity of the incorporation of tritiated thymidine in CCL64 cells: 0%

## O=S(=O)(O)OC[C@H]1O[C@@](COS(=O)(=O)O)(O[C@H]2O[C@H](COS(=O)(=O)O)[C@@H](OS(=O)(=O)O)[C@H](OS(=O)(=O)O)[C@H]2OS(=O)(=O)O)[C@@H](OS(=O)(=O)O)[C@@H]1OS(=O)(=O)O [sucrase, sucrose octasulfate]
EDL muscles [3]
  Ratio regenerated/ contralateral intact (muscle weight): 0.620
  % ratio treated/ ratio degenerated: 87%
Beta TGF
  protection of the beta TGF against proteolysis induced by trypsin (in words): neither sucrase, nor heparin nor dextran sulfate protect the beta TGF

## FGF 1: FGF 1 recombinant form growth factor
FGF 1; FGF 1 alone, CCL39 cells
  ED50 of FGF 1: 5 ng/mL

## dextran sulfate
EDL muscles [4]; [8]
  Diameter of muscles: 3.9 ± 0.4 mm
  Mean diameter of regenerated fibers: 28.2 ± 4.6
  Number of fibers on a half-section: 418
EDL muscles [4]; single injection, 8 days of regeneration
  muscular regeneration after crushing, macroscopic and histological findings (in words): no qualitative or quantitative modification of muscular regeneration; also recorded: neither heparin nor dextran sulfate present properties on muscular regeneration
Beta TGF
  protection of the beta TGF against proteolysis induced by trypsin (in words): neither sucrase, nor heparin nor dextran sulfate protect the beta TGF
Beta TGF; [5]
  Protection of the beta TGF (beta TGF biological activity): 0%
Beta TGF; [6]
  Protection of the beta TGF (beta TGF biological activity): 100%

## carboxymethyl dextran benzylamide sulfonate [CMDBS]
trypsin
  inhibiting power on the activity of trypsin (in words): no inhibiting power
trypsin; Trypsin 10 ug/ml + S87 + 5 ug/ml CMDBS
  trypsin activity: 100
trypsin; Trypsin 10 ug/ml + S87 + 50 ug/ml CMDBS
  trypsin activity: 100
trypsin; Trypsin 10 ug/ml + S87 + 500 ug/ml CMDBS
  trypsin activity: 100
coagulation
  anticoagulant activity: 4 IU/mg
Complement system
  anticomplement activity, CH50: 1.1 µg

B1: STBI: trypsin inhibitor originating from soya, from Sigma (protein, UniProt P01070 25-205, looked up)
Trypsin inhibitor A: DFVLDNEGNPLENGGTYYILSDITAFGGIRAAPTGNERCPLTVVQSRNELDKGIGTIISSPYRIRFIAEGHPLSLKFDSFAVIMLCVGIPTEWSVVEDLPEGPAVKIGENKDAMDGWFRLERVSDDEFNNYKLVFCPQQAEDDKCGDIGISIDHDDGTRRLVVSKNKPLVVQFQKLDKESL
trypsin; Trypsin + S87 + STBI
  trypsin activity: 0
